The record followed here is patent publication US8642609B2, “Modulators of ATP-binding cassette transporters” (Vertex Pharmaceuticals Incorporated, priority 2003, dated 2014).

What is called EC50 is the concentration that produces a half-maximal response. For orientation: Emax means the maximal effect, on the per cent scale that the assay sets.

SMILES strings stand for the structures.

The target of the experiment is T1, ΔF508-CFTR (Homo sapiens, UniProt P13569, DEL508-508).
T1 construct: expressed in transfected cells
The experiment in a line: Membrane potential optical assay (FRET/VIPR), identification of correction compounds. The format is cell-based. The settings on record: for Emax: relative efficacy. The source says:
I) Membrane Potential Optical Methods for Assaying ΔF508-CFTR Modulation Properties of Compounds
The optical membrane potential assay utilized voltage-sensitive FRET sensors described by Gonzalez and Tsien (See, Gonzalez, J. E. and R. Y. Tsien (1995) “Voltage sensing by fluorescence resonance energy transfer in single cells” Biophys J 69(4): 1272-80, and Gonzalez, J. E. and R. Y. Tsien (1997) “Improved indicators of cell membrane potential that use fluorescence resonance energy transfer” Chem Biol 4(4): 269-77) in combination with instrumentation for measuring fluorescence changes such as the Voltage/Ion Probe Reader (VIPR) (See, Gonzalez, J. E., K. Oades, et al. (1999) “Cell-based assays and instrumentation for screening ion-channel targets” Drug Discov Today 4(9): 431-439).
These voltage sensitive assays are based on the change in fluorescence resonant energy transfer (FRET) between the membrane-soluble, voltage-sensitive dye, DiSBAC2(3), and a fluorescent phospholipid, CC2-DMPE, which is attached to the outer leaflet of the plasma membrane and acts as a FRET donor. Changes in membrane potential (Vm) cause the negatively charged DiSBAC2(3) to redistribute across the plasma membrane and the amount of energy transfer from CC2-DMPE changes accordingly. The changes in fluorescence emission were monitored using VIPR™ II, which is an integrated liquid handler and fluorescent detector designed to conduct cell-based screens in 96- or 384-well microtiter plates.
Identification of Correction Compounds
To identify small molecules that correct the trafficking defect associated with ΔF508-CFTR; a single-addition HTS assay format was developed. The cells were incubated in serum-free medium for 16 hrs at 37° C. in the presence or absence (negative control) of test compound. As a positive control, cells plated in 384-well plates were incubated for 16 hrs at 27° C. to “temperature-correct” ΔF508-CFTR. The cells were subsequently rinsed 3× with Krebs Ringers solution and loaded with the voltage-sensitive dyes. To activate ΔF508-CFTR, 10 μM forskolin and the CFTR potentiator, genistein (20 μM), were added along with Cl^−-free medium to each well. The addition of Cl^−-free medium promoted Cl^− efflux in response to ΔF508-CFTR activation and the resulting membrane depolarization was optically monitored using the FRET-based voltage-sensor dyes.
NIH3T3 mouse fibroblasts stably expressing ΔF508-CFTR are used for optical measurements of membrane potential. The cells are maintained at 37° C. in 5% CO2 and 90% humidity in Dulbecco's modified Eagle's medium supplemented with 2 mM glutamine, 10% fetal bovine serum, 1×NEAA, β-ME, 1× pen/strep, and 25 mM HEPES in 175 cm^2 culture flasks. For all optical assays, the cells were seeded at 30,000/well in 384-well matrigel-coated plates and cultured for 2 hrs at 37° C. before culturing at 27° C. for 24 hrs. for the potentiator assay. For the correction assays, the cells are cultured at 27° C. or 37° C. with and without compounds for 16-24 hours B) Electrophysiological Assays for assaying ΔF508-CFTR modulation properties of compounds

T1 sequence (P13569 with tags, fused parts or gaps DEL508-508): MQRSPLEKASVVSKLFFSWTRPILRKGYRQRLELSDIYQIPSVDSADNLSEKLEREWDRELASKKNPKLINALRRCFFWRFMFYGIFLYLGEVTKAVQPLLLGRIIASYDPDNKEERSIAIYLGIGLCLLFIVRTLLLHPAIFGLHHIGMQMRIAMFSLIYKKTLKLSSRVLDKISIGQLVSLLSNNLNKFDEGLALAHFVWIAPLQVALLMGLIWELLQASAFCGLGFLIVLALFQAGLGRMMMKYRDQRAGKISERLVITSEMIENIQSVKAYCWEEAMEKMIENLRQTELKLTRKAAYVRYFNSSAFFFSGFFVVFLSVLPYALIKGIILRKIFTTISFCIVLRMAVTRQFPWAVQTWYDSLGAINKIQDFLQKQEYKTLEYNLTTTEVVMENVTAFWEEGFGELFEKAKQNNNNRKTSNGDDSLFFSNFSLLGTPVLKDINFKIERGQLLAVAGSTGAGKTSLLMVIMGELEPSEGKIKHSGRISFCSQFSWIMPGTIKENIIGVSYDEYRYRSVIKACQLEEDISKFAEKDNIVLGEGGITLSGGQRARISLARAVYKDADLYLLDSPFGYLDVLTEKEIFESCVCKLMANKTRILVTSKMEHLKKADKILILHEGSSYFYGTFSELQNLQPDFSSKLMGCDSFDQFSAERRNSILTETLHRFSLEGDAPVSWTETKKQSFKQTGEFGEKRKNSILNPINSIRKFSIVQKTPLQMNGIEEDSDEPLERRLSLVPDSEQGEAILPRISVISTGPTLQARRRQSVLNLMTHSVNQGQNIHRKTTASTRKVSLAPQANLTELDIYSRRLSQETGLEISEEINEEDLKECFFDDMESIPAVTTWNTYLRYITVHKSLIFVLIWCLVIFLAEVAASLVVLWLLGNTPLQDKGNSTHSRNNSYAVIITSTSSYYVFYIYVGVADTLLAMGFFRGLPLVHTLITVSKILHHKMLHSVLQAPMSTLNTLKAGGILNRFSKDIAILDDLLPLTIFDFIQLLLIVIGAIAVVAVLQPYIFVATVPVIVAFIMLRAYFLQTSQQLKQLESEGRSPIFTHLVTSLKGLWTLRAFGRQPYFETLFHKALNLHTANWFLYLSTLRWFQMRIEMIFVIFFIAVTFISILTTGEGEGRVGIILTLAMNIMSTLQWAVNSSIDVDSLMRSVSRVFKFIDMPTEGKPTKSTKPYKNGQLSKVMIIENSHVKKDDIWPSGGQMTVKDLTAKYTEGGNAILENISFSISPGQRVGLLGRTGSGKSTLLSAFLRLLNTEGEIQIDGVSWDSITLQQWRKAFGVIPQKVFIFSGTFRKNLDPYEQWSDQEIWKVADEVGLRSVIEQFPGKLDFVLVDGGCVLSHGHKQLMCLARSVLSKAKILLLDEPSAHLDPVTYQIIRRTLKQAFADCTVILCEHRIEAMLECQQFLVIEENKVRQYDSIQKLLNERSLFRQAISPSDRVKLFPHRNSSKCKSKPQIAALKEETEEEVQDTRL

With `CC(c1nc2ccccc2c(=O)n1C)N1CCN(S(=O)(=O)c2ccc(Cl)s2)CC1` (stereo not shown) [compound 260], the EC50 is 10 to 25 µM and the Emax lay within 25 to 100%.

Take `COc1ccc(S(=O)(=O)N(C)CCN(C(C)c2nc3ccccc3c(=O)n2C)S(=O)(=O)c2ccc(OC)cc2)cc1` (stereo not shown) [compound 200]: the 50% effective concentration (EC50) fell in the range of 25 to 60 µM and the maximum response (Emax) was less than 25%.

As for `CC(c1nc2ccccc2c(=O)n1C)N1CCN(C(=O)Nc2ccc(Cl)cc2)CC1` (stereo not shown) [compound 33], the concentration giving a half-maximal response (EC50) lay in the range of 25 to 60 µM and the maximal response (Emax) fell in the range of 25 to 100%.

Regarding `COc1ccc(S(=O)(=O)N2CCN(C(C)(C)c3nc4ccc(Cl)cc4c(=O)n3C)CC2)cc1` [compound 149], the EC50 was less than 10 µM and the maximal effect (Emax) was 25 to 100%.

For `COc1cc2nc(C(C)N3CCN(S(=O)(=O)c4ccc(Cl)cc4)CC3)n(C)c(=O)c2cc1OC` (stereo not shown) [compound 283], the concentration for a half-maximal effect (EC50) fell in the range of 25 to 60 µM and the maximum response (Emax) was in the range of 25 to 100%.

Take `CC(c1nc2ccccc2c(=O)n1C)N1CCN(S(=O)(=O)c2cccc3ccccc23)CC1` (stereo not shown) [compound 12]: the EC50 lay within 10 to 25 µM and the maximal effect (Emax) lay in the range of 25 to 100%.

Take `CC(c1nc2ccccc2c(=O)n1C)N1CCN(S(=O)(=O)c2ccc(-c3csnn3)s2)CC1` (stereo not shown) [compound 280]: the EC50 lay within 10 to 25 µM and the Emax is less than 25%.

Consider `CC(NCCN(C)S(=O)(=O)c1ccc(Br)cc1)c1nc2ccccc2c(=O)n1C` (stereo not shown) [compound 213], for which the concentration for a half-maximal effect (EC50) was 25 to 60 µM and the Emax was less than 25%.

Regarding `CCOC(=O)c1cnc(C(C)N2CCN(S(=O)(=O)c3ccc(OC)cc3)CC2)nc1OC1CCCC1` (stereo not shown) [compound 362], the 50% effective concentration (EC50) was less than 10 µM and the Emax was more than 100%.

On to `CC(c1nc2ccccc2c(=O)n1C)N1CCN(S(=O)(=O)c2cccs2)CC1` (stereo not shown) [compound 274], for which the EC50 lay within 25 to 60 µM and the Emax was less than 25%.

On to `COCCOc1nc(C(C)N2CCN(S(=O)(=O)c3ccc(OC)cc3)CC2)nc2ccccc12` (stereo not shown) [compound 295], for which the EC50 fell in the range of 25 to 60 µM and the maximal effect (Emax) lay in the range of 25 to 100%.

With `COc1ccc(S(=O)(=O)N2CCN(C(C)c3nc4ccc(Br)cc4c(=O)n3C)CC2)cc1` (stereo not shown) [compound 116], the concentration for a half-maximal effect (EC50) is less than 10 µM and the maximal response (Emax) is 25 to 100%.

On to `CNc1nc(C(C)N2CCN(S(=O)(=O)c3ccc(Br)cc3)CC2)nc2ccccc12` (stereo not shown) [compound 219], for which the EC50 lay in the range of 25 to 60 µM and the maximal response (Emax) fell in the range of 25 to 100%.

As for `CC(c1nc2ccccc2c(=O)n1C)N1CCN(S(=O)(=O)c2ccc(-c3cc(C(F)(F)F)on3)s2)CC1` (stereo not shown) [compound 261], the 50% effective concentration (EC50) lay in the range of 25 to 60 µM and the Emax was in the range of 25 to 100%.

`CC(c1nc2ccc(C(N)=O)cc2c(=O)n1C)N1CCN(S(=O)(=O)c2ccc(Cl)cc2)CC1` (stereo not shown) [compound 157]: the EC50 lay within 25 to 60 µM and the Emax lay in the range of 25 to 100%.

Take `CCc1ccc(S(=O)(=O)N2CCN(C(C)c3nc4ccccc4c(=O)n3C)CC2)cc1` (stereo not shown) [compound 329]: the half-maximal effective concentration (EC50) was less than 10 µM and the Emax was 25 to 100%.

As for `COc1ccc(S(=O)(=O)N2CCN(Cc3nc(OC4CCCCC4)c4ccccc4n3)CC2)cc1` [compound 385], the concentration giving a half-maximal response (EC50) is less than 10 µM and the maximal effect (Emax) was more than 100%.

As to `CCCCC(=O)N1CCN(C(C)c2nc3ccc(Cl)cc3c(=O)n2C)CC1` (stereo not shown) [compound 16], the EC50 is 25 to 60 µM and the Emax is less than 25%.

Regarding `CC(c1nc2ccccc2c(=O)n1C)N1CCN(S(=O)(=O)c2ccc(-c3ccccc3)cc2)CC1` (stereo not shown) [compound 242], the concentration for a half-maximal effect (EC50) was 25 to 60 µM and the maximum response (Emax) is less than 25%.

With `COc1ccc(S(=O)(=O)N2CCN(C(C)c3nc(OC(C)C)c4ccccc4n3)CC2)cc1` (stereo not shown) [compound 190], the concentration for a half-maximal effect (EC50) was less than 10 µM and the Emax was more than 100%.

Consider `COc1ccc(S(=O)(=O)N2CCN(C(C)c3ncc(C(N)=O)c(N4CCCCC4)n3)CC2)cc1` (stereo not shown) [compound 356], for which the 50% effective concentration (EC50) was in the range of 25 to 60 µM and the Emax was in the range of 25 to 100%.

As for `CSc1ccc(S(=O)(=O)N2CCN(C(C)c3nc4ccccc4c(=O)n3C)CC2)cc1` (stereo not shown) [compound 350], the EC50 was 25 to 60 µM and the Emax was less than 25%.

Turning to `CCCn1c(CN2CCN(S(=O)(=O)c3ccc(Br)cc3)CC2)nc2ccccc2c1=O` [compound 152], the concentration giving a half-maximal response (EC50) is less than 10 µM and the maximum response (Emax) is more than 100%.

Regarding `COc1ccc(S(=O)(=O)N2CCN(C(C)c3nc4ccccc4c(=O)n3C)CC2)cc1` (stereo not shown) [compound 6], the concentration for a half-maximal effect (EC50) lay within 10 to 25 µM and the Emax lay in the range of 25 to 100%.

In the case of `CCCn1c(C(C)N2CCN(S(=O)(=O)c3ccc(Cl)cc3)CC2)nc2ccccc2c1=O` (stereo not shown) [compound 26], the concentration for a half-maximal effect (EC50) is less than 10 µM and the Emax was more than 100%.

Turning to `CC(c1nc2ccc(Br)cc2c(=O)n1C)N1CCN(S(=O)(=O)c2ccccc2)CC1` (stereo not shown) [compound 114], the EC50 lay in the range of 10 to 25 µM and the Emax is 25 to 100%.

As to `CC(c1nc(OC2CCCC2)c2ccccc2n1)N1CCN(S(=O)(=O)c2ccc(Br)cc2)CC1` (stereo not shown) [compound 218], the EC50 was less than 10 µM and the Emax is more than 100%.

On to `CC(c1nc2ccccc2c(=O)n1C)N1CCN(S(=O)(=O)c2ccccc2F)CC1` (stereo not shown) [compound 253], for which the EC50 was in the range of 25 to 60 µM and the Emax is 25 to 100%.

For `COc1ccc(S(=O)(=O)N2CCN(C(C)c3nc4cc(Cl)ccc4c(=O)n3C)CC2)cc1OC` (stereo not shown) [compound 100], the half-maximal effective concentration (EC50) is 10 to 25 µM and the Emax fell in the range of 25 to 100%.

Consider `COc1ccc(S(=O)(=O)N2CCN(C(C)c3nc(NC4CCCCC4)c4cc(F)ccc4n3)CC2)cc1` (stereo not shown) [compound 373], for which the concentration for a half-maximal effect (EC50) is 10 to 25 µM and the maximum response (Emax) fell in the range of 25 to 100%.

As for `COc1ccc(S(=O)(=O)N2CCN(C(C)c3nc4ccc(C#N)cc4c(=O)n3C)CC2)cc1` (stereo not shown) [compound 124], the concentration giving a half-maximal response (EC50) fell in the range of 10 to 25 µM and the maximal effect (Emax) was 25 to 100%.

For the molecule `CC(c1nc2ccccc2c(=O)n1C)N(CCCNS(=O)(=O)c1ccc(Cl)cc1)S(=O)(=O)c1ccc(Cl)cc1` (stereo not shown) [compound 206], the half-maximal effective concentration (EC50) is 25 to 60 µM and the maximal response (Emax) was less than 25%.

Take `COc1ccc(S(=O)(=O)N2CCC(C(C)c3nc(OC4CCCCC4)c4ccccc4n3)CC2)cc1` (stereo not shown) [compound 404]: the EC50 was less than 10 µM and the maximal response (Emax) was more than 100%.

Turning to `COc1ccc(S(=O)(=O)N2CCN(C(C)c3nc(N4CCC(Cc5ccccc5)CC4)c4ccccc4n3)CC2)cc1` (stereo not shown) [compound 389], the EC50 was less than 10 µM and the Emax is more than 100%.

As to `CCC(c1nc(N2CCCCC2)c2ccccc2n1)N1CCN(S(=O)(=O)c2ccc(OC)cc2)CC1` (stereo not shown) [compound 336], the concentration giving a half-maximal response (EC50) was less than 10 µM and the Emax is more than 100%.

For `Cc1cccc(C(=O)N2CCN(C(C)c3nc4ccccc4c(=O)n3C)CC2)c1` (stereo not shown) [compound 57], the 50% effective concentration (EC50) was in the range of 25 to 60 µM and the Emax was less than 25%.

For `Cc1c(S(=O)(=O)N2CCN(C(C)c3nc4ccccc4c(=O)n3C)CC2)sc2ccc(Cl)cc12` (stereo not shown) [compound 270], the EC50 was 25 to 60 µM and the Emax was less than 25%.

Consider `COc1cccc(S(=O)(=O)N2CCN(C(C)c3nc4ccccc4c(=O)n3C)CC2)c1` (stereo not shown) [compound 249], for which the EC50 lay within 25 to 60 µM and the maximal effect (Emax) was 25 to 100%.

For `COc1ccc(S(=O)(=O)N2CCN(C(C)c3nc(N4CCC[C@@H]4C(=O)O)c4ccccc4n3)CC2)cc1` (stereo partly shown) [compound 324], the concentration giving a half-maximal response (EC50) is 25 to 60 µM and the Emax was less than 25%.

In the case of `COc1ccc(S(=O)(=O)N2CCN(C(C)c3nc4cc(OC)c(OC)cc4c(=O)n3C)CC2)cc1` (stereo not shown) [compound 285], the concentration for a half-maximal effect (EC50) fell in the range of 25 to 60 µM and the Emax lay in the range of 25 to 100%.

For `COc1ccc(S(=O)(=O)N2CCN(C(C)c3nc(N4CC=CC4)c4ccccc4n3)CC2)cc1` (stereo not shown) [compound 391], the half-maximal effective concentration (EC50) was 10 to 25 µM and the Emax was more than 100%.

Take `CC(c1nc2ccccc2c(=O)n1C)N1CCN(S(=O)(=O)c2ccc(OC(F)F)cc2)CC1` (stereo not shown) [compound 293]: the EC50 was 25 to 60 µM and the maximal effect (Emax) was more than 100%.

With `COc1ccc(S(=O)(=O)N2CCN(C(C)c3nc4ccc(C(N)=O)cc4c(=O)n3C)CC2)cc1` (stereo not shown) [compound 143], the half-maximal effective concentration (EC50) is 25 to 60 µM and the Emax was in the range of 25 to 100%.

Consider `CC(c1nc2ccccc2c(=O)[nH]1)N1CCN(S(=O)(=O)c2ccc(Cl)cc2)CC1` (stereo not shown) [compound 131], for which the EC50 lay within 10 to 25 µM and the Emax is less than 25%.
